System: 3 strains of influenza A virus and one strain of influenza B virus
Format: cell-based
Details: Vero cells; screening at 50, 10, 5 and 1 μM; all four influenza strains

**Q.** 3-aminotriamantane [MDT-48] was tested. Which “anti-viral activity under the conditions tested” value (shortened to “anti-viral activity”) did it give?
**A.** Its value is “did not exhibit anti-viral activity”.

**Q.** Which “anti-viral activity” value does the source give for 9-aminotriamantane [MDT-49] here?
**A.** The value was “did not exhibit anti-viral activity”.

**Q.** How did the “anti-viral activity” value turn out when `NC12CC3CC4C5CC(CC41)CC2C5C3` [MDT-1, 1-aminodiamantane] was run?
**A.** The value was “did not exhibit anti-viral activity”.

**Q.** For `OC12CC3CC4C5CC(CC41)CC2C5C3` [MDT-10, 1-hydroxydiamantane], which “anti-viral activity” value is on record?
**A.** The value was “did not exhibit anti-viral activity”.

**Q.** For `OC12CC3C4CC5CC3C(C1)C(C5)C4C2` [MDT-11, 4-hydroxydiamantane], which “anti-viral activity” value is on record?
**A.** The value was “did not exhibit anti-viral activity”.

**Q.** For `OC12CC3CC4C1CC1CC2C(C3)C4(O)C1` [MDT-12, 1,6-dihydroxydiamantane], which “anti-viral activity” value is on record?
**A.** Its value is “did not exhibit anti-viral activity”.

**Q.** With `OC12CC3CC4C1CC1CC4C(O)(C3)C2C1` [MDT-13, 1,7-dihydroxydiamantane] as the compound, how does the “anti-viral activity” value read?
**A.** Its value is “did not exhibit anti-viral activity”.

**Q.** Which “anti-viral activity” value does the source give for `OC12CC3C4CC5(O)CC3C(C1)C(C5)C4C2` [MDT-14, 4,9-dihydroxydiamantane] here?
**A.** Its value is “did not exhibit anti-viral activity”.

**Q.** How did the “anti-viral activity” value turn out when `OC12CC3C4CC5C6CC7(O)CC5C(C4C1)C(C2)(C7)C36` [MDT-15, 9,15-dihydroxytriamantane] was run?
**A.** Its value is “did not exhibit anti-viral activity”.

**Q.** Which “anti-viral activity” value does the source give for `CC12CC3(N)CC4C5CC(CC41)CC2C5C3` [MDT-22, 2-methyl-4-aminodiamantane] here?
**A.** The value was “did not exhibit anti-viral activity”.

**Q.** For `CC12CC3CC4C1CC1(N)CC2C(C3)C4(C)C1` [MDT-23, 1,6-dimethyl-4-aminodiamantane], which “anti-viral activity” value is on record?
**A.** The value was “did not exhibit anti-viral activity”.

**Q.** How did the “anti-viral activity” value turn out when `CC12CC3(N)CC4C5CC(N)(CC41)CC2C5C3` [MDT-28, 1-methyl-4,9-diaminodiamantane] was run?
**A.** Its value is “did not exhibit anti-viral activity”.

**Q.** With `CC12CC3CC4C1CC1(N)CC2C(C3)C4(N)C1` [MDT-29, 1-methyl-4,6-diaminodiamantane] as the compound, how does the “anti-viral activity” value read?
**A.** The value was “did not exhibit anti-viral activity”.

**Q.** How did the “anti-viral activity” value turn out when `CC12CC3CC4C5CC(CC41)CC2(N)C5C3` (centres unmarked) [MDT-30, 1-amino-12-methyldiamantane] was run?
**A.** Its value is “did not exhibit anti-viral activity”.

**Q.** With `CC12CC3CC4C1CC1(N)CC2C(C3)C4(C)C1` [MDT-33, 1,6-dimethyl-4-aminodiamantane] as the compound, how does the “anti-viral activity” value read?
**A.** Its value is “did not exhibit anti-viral activity”.

**Q.** Which “anti-viral activity” value does the source give for `CC12CC3C4CC5(C)CC3C(C1)C(N)(C5)C4C2` [MDT-51, 4,9-dimethyl-1-aminodiamantane] here?
**A.** Its value is “did not exhibit anti-viral activity”.

**Q.** With `CC12CC3C4CC5(C)CC(C(C1)C3(N)C5)C4(N)C2` [MDT-53, 4,9-dimethyl-1,6-diaminodiamantane] as the compound, how does the “anti-viral activity” value read?
**A.** Its value is “did not exhibit anti-viral activity”.

**Q.** For `NCC12CC3CC4C5CC(CC41)CC2C5C3` [MDT-56, 1-diamantanemethylamine], which “anti-viral activity” value is on record?
**A.** Its value is “did not exhibit anti-viral activity”.

**Q.** With `O=C1C2CC3C4CC5CC3C1C(C5)C4C2` [MDT-59, 3-diamantanone] as the compound, how does the “anti-viral activity” value read?
**A.** Its value is “did not exhibit anti-viral activity”.

**Q.** How did the “anti-viral activity” value turn out when `CC12CC3C4CC5CC3C(C1)C(C5)C4C2` [MDT-60, 4-methyldiamantane] was run?
**A.** The value was “did not exhibit anti-viral activity”.

**Q.** With `CC12CC3C4CC5(C)CC3C(C1)C(CN)(C5)C4C2` [MDT-63, 4,9-dimethyl-1-diamantanemethyleneamine] as the compound, how does the “anti-viral activity” value read?
**A.** Its value is “did not exhibit anti-viral activity”.

**Q.** For `CC12CC3CC4C1CC1(CN)CC2C(C3)C4(C)C1` [MDT-65, 1,6-dimethyl-4-diamantanemethyleneamine], which “anti-viral activity” value is on record?
**A.** Its value is “did not exhibit anti-viral activity”.

**Q.** Which “anti-viral activity” value does the source give for `CC(N)C12CC3(C)CC4C5CC(C)(CC41)CC2C5C3` (centres unmarked) [MDT-67, 4,9-dimethyl-1-diamantane-1′-methyl-methyleneamine] here?
**A.** The value was “did not exhibit anti-viral activity”.
